Test results from ChEMBL document CHEMBL1201862, “PubChem BioAssay data set” (2004).
Calls of active or inactive are those of the source.

Experiments:
Cytochrome P450 2D6 = Cytochrome P450 2D6 (Homo sapiens, UniProt P10635); assay: qHTS Assay for Inhibitors and Substrates of Cytochrome P450 2D6. [Related pubchem assays: 410 ]; format: ADME; conditions: read-out: Potency
Cytochrome P450 2C19 [1] = target: T1, Cytochrome P450 2C19 (Homo sapiens, UniProt P33261); assay: qHTS Assay for Inhibitors and Substrates of Cytochrome P450 2C19. [Related pubchem assays: 410 ]; format: ADME; conditions: read-out: Potency
T1 sequence (P33261 whole entry): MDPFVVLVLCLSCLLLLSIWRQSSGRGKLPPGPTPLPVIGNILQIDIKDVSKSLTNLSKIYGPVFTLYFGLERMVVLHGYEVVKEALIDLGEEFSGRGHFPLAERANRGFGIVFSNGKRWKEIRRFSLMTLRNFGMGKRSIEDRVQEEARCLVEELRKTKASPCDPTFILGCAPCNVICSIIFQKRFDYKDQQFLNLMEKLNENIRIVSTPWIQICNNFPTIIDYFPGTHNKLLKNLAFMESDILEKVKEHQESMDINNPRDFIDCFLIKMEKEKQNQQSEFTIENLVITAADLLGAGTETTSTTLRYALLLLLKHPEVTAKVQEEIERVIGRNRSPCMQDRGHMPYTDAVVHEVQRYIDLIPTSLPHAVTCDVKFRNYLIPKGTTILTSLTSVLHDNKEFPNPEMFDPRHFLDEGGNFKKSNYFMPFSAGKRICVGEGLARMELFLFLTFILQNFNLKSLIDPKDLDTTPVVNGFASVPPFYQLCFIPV

Aminopeptidase N = target: T2, Aminopeptidase N (Plasmodium falciparum FcB1/Columbia, UniProt O96935); assay: P. falciparum M1AAP inhibitors, biochemical, fluorogenic H-Leu-NHMec substrate, 1536-well (AID 1445); parameters: species or system Plasmodium falciparum 3D7, 3D7
T2 sequence (O96935 whole entry): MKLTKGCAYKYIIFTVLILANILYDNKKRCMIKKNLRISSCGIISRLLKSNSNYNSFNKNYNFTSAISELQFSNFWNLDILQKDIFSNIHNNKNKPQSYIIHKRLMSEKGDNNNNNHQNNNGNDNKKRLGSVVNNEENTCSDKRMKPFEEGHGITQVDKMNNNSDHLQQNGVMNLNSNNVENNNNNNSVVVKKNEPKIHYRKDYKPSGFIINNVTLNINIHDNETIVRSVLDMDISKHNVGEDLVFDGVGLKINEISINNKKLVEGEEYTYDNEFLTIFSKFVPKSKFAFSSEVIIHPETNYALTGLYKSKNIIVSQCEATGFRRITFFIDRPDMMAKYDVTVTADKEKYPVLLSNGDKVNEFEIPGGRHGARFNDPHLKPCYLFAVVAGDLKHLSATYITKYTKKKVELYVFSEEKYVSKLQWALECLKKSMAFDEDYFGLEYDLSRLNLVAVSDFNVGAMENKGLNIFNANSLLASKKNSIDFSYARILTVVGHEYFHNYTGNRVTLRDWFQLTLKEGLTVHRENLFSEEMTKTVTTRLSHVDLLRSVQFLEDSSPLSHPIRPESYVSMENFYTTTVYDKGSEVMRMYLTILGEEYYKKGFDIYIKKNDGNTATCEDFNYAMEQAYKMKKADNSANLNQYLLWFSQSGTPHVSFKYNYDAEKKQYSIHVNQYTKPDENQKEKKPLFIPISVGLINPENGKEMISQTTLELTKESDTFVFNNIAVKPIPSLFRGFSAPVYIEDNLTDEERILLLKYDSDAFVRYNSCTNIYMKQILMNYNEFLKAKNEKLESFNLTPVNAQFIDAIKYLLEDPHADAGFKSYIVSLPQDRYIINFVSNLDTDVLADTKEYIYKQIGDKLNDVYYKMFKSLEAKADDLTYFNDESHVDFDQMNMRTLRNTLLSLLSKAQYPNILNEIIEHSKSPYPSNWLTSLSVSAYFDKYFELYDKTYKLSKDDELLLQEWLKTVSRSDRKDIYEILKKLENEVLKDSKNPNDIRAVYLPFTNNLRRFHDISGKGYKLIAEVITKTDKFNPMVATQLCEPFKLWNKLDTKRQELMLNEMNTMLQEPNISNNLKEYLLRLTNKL

[2] = target: Lysosomal acid glucosylceramidase (Homo sapiens, UniProt P04062); assay: Dose response cell-based high throughput screening assay to identify enhancers of beta-glucosidase activity. [Related pubchem assays: 784 ]; format: functional
Lysosomal acid glucosylceramidase, sequence (P04062 whole entry): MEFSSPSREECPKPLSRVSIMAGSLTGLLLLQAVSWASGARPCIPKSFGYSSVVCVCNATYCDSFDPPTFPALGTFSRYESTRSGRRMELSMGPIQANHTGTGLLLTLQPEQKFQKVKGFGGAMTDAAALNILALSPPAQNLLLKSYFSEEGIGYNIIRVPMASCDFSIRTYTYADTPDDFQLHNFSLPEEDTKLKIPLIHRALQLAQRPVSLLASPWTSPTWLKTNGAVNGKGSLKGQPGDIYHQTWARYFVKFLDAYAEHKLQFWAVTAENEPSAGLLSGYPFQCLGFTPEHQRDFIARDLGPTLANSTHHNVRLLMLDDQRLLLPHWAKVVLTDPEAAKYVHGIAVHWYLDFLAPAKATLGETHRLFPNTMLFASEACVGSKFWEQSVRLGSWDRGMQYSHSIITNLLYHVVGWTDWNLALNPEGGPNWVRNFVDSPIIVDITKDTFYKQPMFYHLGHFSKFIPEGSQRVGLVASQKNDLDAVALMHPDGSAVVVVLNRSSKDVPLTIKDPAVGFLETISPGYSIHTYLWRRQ

[3] = target: T3, Intestinal-type alkaline phosphatase (Mus musculus, UniProt P24822); assay: PubChem AID 488785; format: functional
T3 sequence (P24822 whole entry): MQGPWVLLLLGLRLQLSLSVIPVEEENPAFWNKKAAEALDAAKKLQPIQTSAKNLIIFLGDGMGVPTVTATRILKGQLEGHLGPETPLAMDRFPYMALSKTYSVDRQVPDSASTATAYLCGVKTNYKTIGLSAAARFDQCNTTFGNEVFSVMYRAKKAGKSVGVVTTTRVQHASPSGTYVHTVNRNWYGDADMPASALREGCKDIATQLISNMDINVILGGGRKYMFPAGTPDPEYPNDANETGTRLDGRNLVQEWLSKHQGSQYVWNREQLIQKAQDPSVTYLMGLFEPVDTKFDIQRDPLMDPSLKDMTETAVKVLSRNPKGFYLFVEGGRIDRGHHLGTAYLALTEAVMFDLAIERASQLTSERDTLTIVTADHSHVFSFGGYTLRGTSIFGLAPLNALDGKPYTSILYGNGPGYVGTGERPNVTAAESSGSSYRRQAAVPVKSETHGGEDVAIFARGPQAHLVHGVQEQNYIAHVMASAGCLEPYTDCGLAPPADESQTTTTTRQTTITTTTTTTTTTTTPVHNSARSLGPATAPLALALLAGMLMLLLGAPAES

[4] = target: Induced myeloid leukemia cell differentiation protein Mcl-1 (Homo sapiens, UniProt Q07820); format: functional
Induced myeloid leukemia cell differentiation protein Mcl-1, sequence (Q07820 whole entry): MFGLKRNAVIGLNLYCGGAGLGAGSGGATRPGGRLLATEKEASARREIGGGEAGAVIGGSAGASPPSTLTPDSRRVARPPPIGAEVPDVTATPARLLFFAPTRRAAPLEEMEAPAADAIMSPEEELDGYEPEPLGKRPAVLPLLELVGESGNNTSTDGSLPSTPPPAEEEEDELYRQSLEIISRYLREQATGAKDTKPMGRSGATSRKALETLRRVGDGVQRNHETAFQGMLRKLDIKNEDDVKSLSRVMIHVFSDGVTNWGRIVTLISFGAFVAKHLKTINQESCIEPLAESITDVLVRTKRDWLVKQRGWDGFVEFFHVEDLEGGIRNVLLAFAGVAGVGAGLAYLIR

Streptokinase A = target: T4, Streptokinase A (Streptococcus pyogenes serotype M1, UniProt P10520); assay: S. pyogenes streptokinase expression inhibitors, potency, dose response, plasminogen activation absorbance, OD405 (AID 1914); format: functional, Streptococcus pyogenes M1 GAS;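 also: secreted streptokinase activity via plasminogen activation per viability signal from cell pellet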
T4 sequence (P10520 whole entry): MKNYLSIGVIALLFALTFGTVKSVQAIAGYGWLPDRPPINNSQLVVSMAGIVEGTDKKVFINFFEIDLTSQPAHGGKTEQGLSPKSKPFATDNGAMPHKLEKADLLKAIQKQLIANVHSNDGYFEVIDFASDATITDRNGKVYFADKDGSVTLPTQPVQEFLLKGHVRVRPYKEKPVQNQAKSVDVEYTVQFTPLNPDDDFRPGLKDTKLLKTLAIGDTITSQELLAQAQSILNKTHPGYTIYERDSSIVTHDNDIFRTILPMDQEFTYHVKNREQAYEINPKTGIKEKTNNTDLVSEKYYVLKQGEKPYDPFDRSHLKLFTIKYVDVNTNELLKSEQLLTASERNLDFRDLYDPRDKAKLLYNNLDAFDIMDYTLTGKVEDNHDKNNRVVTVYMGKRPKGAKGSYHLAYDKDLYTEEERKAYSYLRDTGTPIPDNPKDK

[5] = target: T5, Intestinal-type alkaline phosphatase (Homo sapiens, UniProt P09923); assay: activation of human intestinal alkaline phosphatase – biochemical, dose response (AID 488873); format: functional
T5 sequence (P09923 whole entry): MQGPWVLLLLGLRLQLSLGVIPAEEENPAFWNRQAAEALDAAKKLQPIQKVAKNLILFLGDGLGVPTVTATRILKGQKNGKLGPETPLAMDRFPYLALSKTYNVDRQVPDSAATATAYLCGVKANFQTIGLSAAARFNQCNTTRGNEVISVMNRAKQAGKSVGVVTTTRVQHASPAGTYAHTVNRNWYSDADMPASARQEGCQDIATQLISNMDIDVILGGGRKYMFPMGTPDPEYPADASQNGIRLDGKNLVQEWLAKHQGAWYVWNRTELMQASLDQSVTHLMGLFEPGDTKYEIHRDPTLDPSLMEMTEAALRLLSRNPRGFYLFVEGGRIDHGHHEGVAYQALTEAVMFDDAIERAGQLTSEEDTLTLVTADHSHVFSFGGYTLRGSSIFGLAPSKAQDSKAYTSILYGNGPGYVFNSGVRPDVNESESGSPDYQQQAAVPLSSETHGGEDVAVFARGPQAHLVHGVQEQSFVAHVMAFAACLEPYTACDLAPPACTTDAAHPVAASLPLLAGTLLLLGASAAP

[6] = target: T6, Alkaline phosphatase, tissue-nonspecific isozyme (Homo sapiens, UniProt P05186); assay: TNAP enzyme inhibition by screening hits, dose response, selectivity assay for mouse IAP inhibitor project, biochemical, human TNAP, uHTS hits (AID 488906); format: functional
T6 sequence (P05186 whole entry): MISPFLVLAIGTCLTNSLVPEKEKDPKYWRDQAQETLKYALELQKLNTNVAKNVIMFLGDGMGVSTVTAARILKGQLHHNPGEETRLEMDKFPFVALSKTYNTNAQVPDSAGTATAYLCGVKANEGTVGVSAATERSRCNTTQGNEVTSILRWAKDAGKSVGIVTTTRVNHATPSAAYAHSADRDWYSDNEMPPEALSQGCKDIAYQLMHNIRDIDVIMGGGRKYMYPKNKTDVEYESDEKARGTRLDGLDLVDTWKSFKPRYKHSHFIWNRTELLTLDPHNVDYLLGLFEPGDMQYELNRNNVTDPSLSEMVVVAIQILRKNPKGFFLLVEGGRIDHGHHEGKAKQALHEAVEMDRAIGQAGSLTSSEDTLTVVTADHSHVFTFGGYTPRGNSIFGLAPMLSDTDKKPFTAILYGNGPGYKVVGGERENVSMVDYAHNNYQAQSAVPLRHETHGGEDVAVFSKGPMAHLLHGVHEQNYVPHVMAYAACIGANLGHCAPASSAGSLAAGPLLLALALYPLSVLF

[7] = tested on: Streptococcus sp. 'group A'; assay: growth inhibition of control SK(-) GAS strain, dose response, counter-screen for streptokinase expression inhibitor project, luminescence, kanamycin, BacTiterGlo, confirmation (AID 1900); format: functional, organism-based
Streptococcus = assay: Group A Streptococcus viability loss, dose response, counter-screen for streptokinase expression inhibitor project, luminescence, BacTiterGlo (AID 1915); format: functional, organism-based;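 also: potency for reduction of bacterial viability or growth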
Cytochrome P450 2C9 = Cytochrome P450 2C9 (Homo sapiens, UniProt P11712)
Cytochrome P450 2C19 [8] = target: T1, Cytochrome P450 2C19; assay: Cytochrome panel assay with activity outcomes. Panel member name: p450-cyp2c19 Compounds with AC50 equal or less than 10 uM are considered active; format: functional
[9] = target: Heat shock protein HSP 90-alpha (Homo sapiens, UniProt P07900); format: functional, organism-based
INS1 = assay: beta cell apoptosis inhibitors, cytokine rescue, dose response, luminescence, retest (AID 449756); format: functional, cell-based; conditions: Rattus norvegicus;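 also: cell death triggered by IL-1 beta plus TNF-alpha plus IFN-gamma mixture; protective hits raise ATP signal compared with cytokine alone wells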
[10] = target: T6, Alkaline phosphatase, tissue-nonspecific isozyme; assay: TNAP enzyme activators, dose response, selectivity assay for human IAP activator project, biochemical, TNAP isozyme, human IAP uHTS hits (AID 488886); format: functional;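 also: potency of compounds raising TNAP activity as a selectivity check on IAP activators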
[11] = target: T3, Intestinal-type alkaline phosphatase; assay: PubChem AID 488875; format: functional
[12] = target: T5, Intestinal-type alkaline phosphatase; assay: human IAP activators, dose response, biochemical, luminescent, uHTS hits, set 2 (AID 488817); format: functional;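 also: potency of activators that raise enzyme activity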
[13] = target: T5, Intestinal-type alkaline phosphatase; assay: human intestinal alkaline phosphatase activators, dose response, biochemical, luminescence, uHTS hits (AID 463120); format: functional
[14] = target: G-protein coupled receptor 55 (Homo sapiens, UniProt Q9Y2T6); assay: GPR55 antagonists blocking LPI-driven arrestin recruitment, primary screen, imaging, U2OS, beta-arrestin-GFP, LPI agonist (AID 2013); format: functional;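 also: antagonist potency measured as reduced agonist-driven arrestin aggregation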
G-protein coupled receptor 55, sequence (Q9Y2T6 whole entry): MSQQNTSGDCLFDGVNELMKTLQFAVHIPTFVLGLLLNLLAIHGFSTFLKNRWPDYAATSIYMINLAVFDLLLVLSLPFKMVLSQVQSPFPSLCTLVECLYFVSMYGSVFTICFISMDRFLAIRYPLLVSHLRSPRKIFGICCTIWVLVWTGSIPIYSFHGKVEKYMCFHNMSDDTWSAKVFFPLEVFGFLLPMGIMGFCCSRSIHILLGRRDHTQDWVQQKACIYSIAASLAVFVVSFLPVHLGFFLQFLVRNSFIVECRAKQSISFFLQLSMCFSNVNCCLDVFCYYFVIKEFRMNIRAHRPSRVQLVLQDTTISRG

[15] = target: Acyl-homoserine lactone acylase PvdQ (Pseudomonas aeruginosa (strain LESB58), UniProt Q9I194); assay: P. aeruginosa PvdQ acylase inhibitors, dose response, biochemical, fluorescence, plate reader and imaging, cherry-picks (AID 493231)
Acyl-homoserine lactone acylase PvdQ, sequence (Q9I194 24-193 limits assumed): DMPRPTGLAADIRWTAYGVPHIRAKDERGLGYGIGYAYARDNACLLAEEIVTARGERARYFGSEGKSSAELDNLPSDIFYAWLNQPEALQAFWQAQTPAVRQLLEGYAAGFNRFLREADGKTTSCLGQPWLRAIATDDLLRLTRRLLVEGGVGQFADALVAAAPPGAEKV
Acyl-homoserine lactone acylase PvdQ, sequence (Q9I194 217-762 limits assumed): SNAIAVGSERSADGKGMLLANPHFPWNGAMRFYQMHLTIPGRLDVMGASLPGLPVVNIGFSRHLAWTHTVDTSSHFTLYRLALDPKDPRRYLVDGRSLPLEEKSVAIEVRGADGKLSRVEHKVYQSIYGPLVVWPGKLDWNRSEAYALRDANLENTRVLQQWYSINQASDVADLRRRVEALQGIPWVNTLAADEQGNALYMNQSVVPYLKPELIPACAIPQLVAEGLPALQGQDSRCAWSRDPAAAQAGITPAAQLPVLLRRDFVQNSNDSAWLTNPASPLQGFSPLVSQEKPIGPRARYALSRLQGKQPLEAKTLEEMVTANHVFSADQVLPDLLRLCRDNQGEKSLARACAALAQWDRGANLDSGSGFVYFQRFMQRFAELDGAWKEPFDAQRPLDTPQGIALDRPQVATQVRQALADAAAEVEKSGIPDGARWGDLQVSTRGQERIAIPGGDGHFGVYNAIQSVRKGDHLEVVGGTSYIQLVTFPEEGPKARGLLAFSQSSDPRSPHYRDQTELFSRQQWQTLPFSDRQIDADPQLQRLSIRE

Aspartyl aminopeptidase = Aspartyl aminopeptidase (Plasmodium falciparum 3D7, UniProt Q8I2J3)
Aspartyl aminopeptidase, sequence (Q8I2J3 whole entry): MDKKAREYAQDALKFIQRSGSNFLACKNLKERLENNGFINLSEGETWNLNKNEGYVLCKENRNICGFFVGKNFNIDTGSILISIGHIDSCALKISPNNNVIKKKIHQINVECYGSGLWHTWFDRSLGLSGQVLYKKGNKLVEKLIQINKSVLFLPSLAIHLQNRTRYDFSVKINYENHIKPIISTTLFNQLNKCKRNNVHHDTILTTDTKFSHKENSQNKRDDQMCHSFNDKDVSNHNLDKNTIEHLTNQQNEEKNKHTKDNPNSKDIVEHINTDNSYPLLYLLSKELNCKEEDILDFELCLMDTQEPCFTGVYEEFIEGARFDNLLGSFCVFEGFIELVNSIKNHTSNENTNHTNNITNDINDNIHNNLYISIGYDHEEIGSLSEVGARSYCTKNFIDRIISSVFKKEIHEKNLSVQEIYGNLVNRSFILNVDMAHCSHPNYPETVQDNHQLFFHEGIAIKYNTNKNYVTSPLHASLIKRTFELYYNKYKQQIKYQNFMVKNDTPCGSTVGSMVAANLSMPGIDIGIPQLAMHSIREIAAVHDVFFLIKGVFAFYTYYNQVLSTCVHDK

Procathepsin L = Procathepsin L (Homo sapiens, UniProt P07711)
Procathepsin L, sequence (P07711 whole entry): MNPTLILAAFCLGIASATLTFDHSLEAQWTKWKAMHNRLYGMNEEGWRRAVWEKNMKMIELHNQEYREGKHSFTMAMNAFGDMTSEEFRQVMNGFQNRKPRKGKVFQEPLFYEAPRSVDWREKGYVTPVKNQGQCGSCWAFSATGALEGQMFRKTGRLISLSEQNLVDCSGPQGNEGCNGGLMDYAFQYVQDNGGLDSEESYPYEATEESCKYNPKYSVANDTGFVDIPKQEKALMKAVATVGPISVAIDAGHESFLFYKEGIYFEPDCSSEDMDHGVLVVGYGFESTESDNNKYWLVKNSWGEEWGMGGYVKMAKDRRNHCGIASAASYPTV

Troponin, cardiac muscle = Troponin, cardiac muscle (Homo sapiens, UniProt P19429+P45379+P63316); assay: Fluorescence-based biochemical high throughput dose response assay for activators of the calcium sensitivity of cardiac Regulated Thin Filaments (RTF). [Related pubchem assays (depositor defined):AID493008, AID493018, AID504382, AID504383]; format: protein-complex assay
[16] = cytotoxicity in HPDE-C7 cells, cell-based, fluorescence, HTS (AID 430); format: functional; conditions: Homo sapiens
[17] = target: T7, Voltage-gated N-type calcium channel alpha-1B subunit/Amyloid beta A4 precursor protein-binding family A member 1 (Homo sapiens, UniProt Q00975+Q02410); format: protein assay
[18] = target: T7, Voltage-gated N-type calcium channel alpha-1B subunit/Amyloid beta A4 precursor protein-binding family A member 1; format: protein assay; remark: listed apart in the source
[19] = cytotoxicity in KRAS-transformed pancreatic duct cells, primary screen, cell-based, fluorescence, HTS (AID 431); format: functional; conditions: Homo sapiens;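 also: cell line used: HPDE-C7K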
Estrogen receptor = target: T8, Estrogen receptor (Homo sapiens, UniProt P03372);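 also: potency for inhibiting coactivator peptide recruitment to the receptor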
T8 sequence (P03372 whole entry): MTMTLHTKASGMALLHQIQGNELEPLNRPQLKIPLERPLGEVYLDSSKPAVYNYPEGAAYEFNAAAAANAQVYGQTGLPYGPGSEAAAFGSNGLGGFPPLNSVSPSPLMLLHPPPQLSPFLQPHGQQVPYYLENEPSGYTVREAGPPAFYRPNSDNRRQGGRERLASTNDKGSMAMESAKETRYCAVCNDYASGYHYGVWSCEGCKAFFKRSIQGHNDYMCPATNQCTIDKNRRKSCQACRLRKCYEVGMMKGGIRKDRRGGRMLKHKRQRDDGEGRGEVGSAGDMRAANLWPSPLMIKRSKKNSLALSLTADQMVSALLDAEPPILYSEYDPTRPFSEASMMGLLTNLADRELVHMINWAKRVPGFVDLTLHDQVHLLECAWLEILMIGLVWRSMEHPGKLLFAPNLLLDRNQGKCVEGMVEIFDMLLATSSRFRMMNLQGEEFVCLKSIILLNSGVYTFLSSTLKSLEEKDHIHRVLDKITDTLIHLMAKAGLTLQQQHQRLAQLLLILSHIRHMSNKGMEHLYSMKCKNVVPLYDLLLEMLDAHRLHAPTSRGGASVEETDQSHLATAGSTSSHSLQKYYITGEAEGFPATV

Ephrin type-A receptor 4 = Ephrin type-A receptor 4 (Mus musculus, UniProt Q03137); assay: inhibitors of EphA4 binding to KYL peptide, primary screen, biochemical, colorimetric, mouse EphA4 (AID 689); format: functional

Cytochrome P450 2D6, sequence (P10635 whole entry): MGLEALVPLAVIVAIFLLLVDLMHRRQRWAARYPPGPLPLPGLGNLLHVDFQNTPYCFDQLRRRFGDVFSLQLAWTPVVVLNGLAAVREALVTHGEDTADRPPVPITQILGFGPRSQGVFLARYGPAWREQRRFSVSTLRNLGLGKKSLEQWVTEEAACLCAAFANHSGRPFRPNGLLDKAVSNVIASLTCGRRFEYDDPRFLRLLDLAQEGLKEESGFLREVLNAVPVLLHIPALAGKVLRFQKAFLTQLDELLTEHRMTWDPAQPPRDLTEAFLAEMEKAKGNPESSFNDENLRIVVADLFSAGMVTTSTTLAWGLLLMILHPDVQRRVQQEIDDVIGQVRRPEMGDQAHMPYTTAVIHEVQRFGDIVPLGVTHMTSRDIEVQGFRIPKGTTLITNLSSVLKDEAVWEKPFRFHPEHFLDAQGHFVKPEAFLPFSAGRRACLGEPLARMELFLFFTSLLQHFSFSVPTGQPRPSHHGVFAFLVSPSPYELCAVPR

CCOC(=O)[C@]1(C(NC(=O)OC)c2cccc(F)c2)CCCC1=O (some centres undefined)
AC50 (Cytochrome P450 2D6): 3.98 µM (inconclusive)
AC50 (Cytochrome P450 2C19 [1]): 3.98 µM (inconclusive)

CC(=O)Nc1cccc(NC(=O)C2CCCN2C(=O)Nc2ccc(C)cc2)c1 (centres undefined)
IC50 (Aminopeptidase N): 61.3 µM (active)
EC50 [2]: > 50 µM (not active)

NS(=O)(=O)c1ccc(-c2ccc(/C=C3\SC(=S)N(C4CCS(=O)(=O)C4)C3=O)o2)cc1 (centres undefined)
IC50 [3]: > 100 µM (inactive)
IC50 [4]: 1.85 µM (active)
EC50 (Streptokinase A): > 150 µM (not active)
EC50 [5]: 29.4 µM (active)
IC50 [6]: 1.32 µM (active)
EC50 [7]: 7.36 µM (active)
EC50 (Streptococcus): 32.2 µM (active)

COc1cccc2cc(NC(=O)C3CCCCC3)c(=O)oc12
AC50 (Cytochrome P450 2C9): inconclusive
AC50 (Cytochrome P450 2C19 [8]): 39.8 µM (inconclusive)
EC50 [2]: > 50 µM (not active)

CC1=NN(c2nc3ccccc3[nH]2)C(=O)/C1=C/N(C)C
AC50 [9]: 6.12 µM (active)
AC50 (INS1): 2.48 µM (active)
EC50 [10]: 11.4 µM (active)
EC50 [11]: > 100 µM (inactive)
EC50 [12]: 23.2 µM (active)
EC50 [13]: 12.3 µM (active)

Cc1ccc(-c2nc(SCC(=O)N(C)C3CCS(=O)(=O)C3)[nH]c2-c2ccc(C)cc2)cc1 (centres undefined)
IC50 [14]: 3.83 µM (active)

CCOC(=O)c1ccc(NC(=O)c2ccco2)cc1
AC50 [15]: 57.2 µM (active)

COc1ccc(C(=O)n2cnnc2N)cc1
IC50 (Aspartyl aminopeptidase): 2.51 µM (active)
IC50 (Procathepsin L): > 59.6 µM (not active)

Cn1cc(/C=C2\SC(=S)N(NC(=O)c3ccccc3)C2=O)c2ccccc21
EC50 (Troponin, cardiac muscle): 1.47 µM (active)

CCOc1cc(C(=O)NC(=S)Nn2cnnc2)cc(OCC)c1OCC
IC50 (Aspartyl aminopeptidase): 0.921 µM (active)
IC50 (Procathepsin L): > 59.6 µM (not active)

CSc1nc(NCCOCCO)c2sc3nc(-c4ccco4)c4c(c3c2n1)CCC4
IC50 [4]: 1.92 µM (active)
EC50 [16]: 8.85 µM (active)
IC50 [17]: 1.98 µM (active)
IC50 [18]: 14.7 µM (active)
EC50 [19]: 6.86 µM (active)
IC50 (Estrogen receptor): > 50 µM (not active)
IC50 (Ephrin type-A receptor 4): > 100 µM (not active)

Cc1nn(C)c(C(=O)NN=C(S)NCc2ccccc2)c1Cl
EC50 [10]: 17.3 µM (active)
EC50 [11]: > 100 µM (inactive)
EC50 [12]: 17 µM (active)
EC50 [13]: 14.8 µM (active)

Cc1cc(C)nc(N(C#N)Cc2ccc([N+](=O)[O-])cc2)n1
AC50 [15]: > 100 µM (inactive)
